Consider six compounds from patent US20040127433A1, “Erythromycin derivative and medicament comprising the same” (priority 2000, published 2004).

As a reminder, the melting point is the temperature, or range, at which the solid turns liquid.

Series [1] deals with clinical isolates of a typical acid-fast mycobacteria. The series can be described thus: microbe, parasite or virus in culture. The format is cell-based, Mycobacterium. To be noted: 7H11 agar, 37° C., 7 days; for MIC: 168 h. The procedure:
(§1) In order to evaluate excellent efficacy of the compounds of the present invention, their antibacterial spectrums against a typical acid-fast mycobacteria were measured. Clarithromycin, rifampicin and 4″-O-acetylerythromycin A 9-(O-methyloxime) [a compound disclosed in the Japanese Patent Unexamined Publication (KOKAI) No.63-107921/1988] were used as reference compounds. Ac in the formula represents acetyl group. [drawing 1313]
(§2) Antibacterial Activity Against a Typical Acid-Fast Mycobacteria
(§3) Antibacterial activities (minimum inhibitory concentrations) against clinical isolates of a typical acid-fast mycobacteria were measured by the agar dilution method according to the standard method of the Japan Society of Chemotherapy. About 5 μl of bacterial suspension (adjusted to […]) were spotted on the 7H11 agar plates containing the test compounds. The minimum inhibitory concentrations were determined by the growth or no growth of the bacteria after incubation at 37° C. for 7 days. The abbreviation M in the table represents Mycobacterium. The compounds of the present invention had more excellent antibacterial activity than the reference compounds against a typical acid-fast mycobacteria including clarithromycin-resistant strains (M.avium 20092 and other bacteria).

Series [2] deals with M.avium 20092. Nature of the series: Antibacterial activity (minimum inhibitory concentration), agar dilution method, clarithromycin-resistant strain. In kind it is cell-based, Mycobacterium avium. To be noted: M. avium 20092 (clarithromycin-resistant), 7H11 agar, 37° C., 7 days; for MIC: Mycobacterium avium, 168 h. Here is the method: as §1, §2, §3
[3] abbreviates: Mycobacterium avium, read-out: Minimum inhibitory concentration, M. avium 20034.
Setting [4] is: Mycobacterium avium, read-out: Minimum inhibitory concentration, M. avium 20045.
The mark [5] stands for this setting: Mycobacterium avium, read-out: Minimum inhibitory concentration, M. avium 20096.
The mark [6] stands for this setting: Mycobacterium intracellulare, read-out: Minimum inhibitory concentration, M. intracellulare 20066.
The mark [7] stands for this setting: Mycobacterium intracellulare, read-out: Minimum inhibitory concentration, M. intracellulare 20067.
Setting [8] is: Mycobacterium intracellulare, read-out: Minimum inhibitory concentration, M. intracellulare 20073.
Where [9] appears, read: Mycobacterium intracellulare, read-out: Minimum inhibitory concentration, M. intracellulare 20075.

Converted amounts (≈) assume the structure as drawn. Read-outs that look alike come from different tables or passages of the source.

With “4″-O-Acetyl-2′-O-benzylaminocarbonylerythromycin A 9-[O-(3-cyclo-hexylpropyl)oxime] [Example 40]”, the Minimum inhibitory concentration was 0.39 µg/mL in series [1] (M. avium 20034); 0.78 µg/mL in series [1] (M. avium 20045); 0.78 µg/mL in series [1] (M. avium 20096); 0.20 µg/mL in series [1] (M. intracellulare 20066); 0.78 µg/mL in series [1] (M. intracellulare 20067); 0.78 µg/mL in series [1] (M. intracellulare 20073). The Minimum inhibitory concentration in series [1] (M. intracellulare 20075) and in series [2] was 0.78 µg/mL throughout.

`CC[C@H]1OC(=O)[C@H](C)[C@@H](O[C@H]2C[C@@](C)(OC)[C@@H](O)[C@H](C)O2)C[C@@H](O[C@@H]2O[C@H](C)C[C@H](N(C)C)[C@H]2OC(=O)NCc2ccccc2)C(C)(O)C[C@@H](C)C(=NOCCCOc2ccccc2)[C@H](C)[C@@H](O)[C@]1(C)O` (some centres unmarked) [Example 34] gave a melting point of 107 to 110 °C.

`CCCCCCCCON=C1[C@H](C)CC(C)(O)[C@H](O[C@@H]2O[C@H](C)C[C@H](N(C)C)[C@H]2OC(=O)NCc2ccccc2)C[C@H](O[C@H]2C[C@@](C)(OC)[C@@H](OC(C)=O)[C@H](C)O2)[C@@H](C)C(=O)O[C@H](CC)[C@@](C)(O)[C@H](O)[C@H]1C` (some centres unmarked) [Example 94]: the MIC in series [1] (setting [3]) turned out to be 0.39 µg/mL (≈ 0.381 µM); in series [1] (setting [4]) it was 0.78 µg/mL (≈ 0.763 µM); in series [1] (setting [5]), 0.39 µg/mL (≈ 0.381 µM); in series [1] (setting [6]) it was 0.39 µg/mL (≈ 0.381 µM); in series [1] (setting [7]), 0.39 µg/mL (≈ 0.381 µM); in series [1] (setting [8]), 0.39 µg/mL (≈ 0.381 µM). Besides, the MIC in series [1] (setting [9]) and in series [2] was 0.39 µg/mL (≈ 0.381 µM) each time.

Regarding `CC[C@H]1OC(=O)[C@H](C)[C@@H](O[C@H]2C[C@@](C)(OC)[C@@H](O)[C@H](C)O2)[C@H](C)[C@@H](O[C@@H]2O[C@H](C)C[C@H](N(C)C)[C@H]2O)[C@](C)(OC)C[C@@H](C)C(=O)[C@H](C)[C@@H](O)[C@]1(C)O` [compound 1, Clarithromycin], the MIC was 3.13 µg/mL (≈ 4.18 µM) in series [1] (setting [3]); 1.56 µg/mL (≈ 2.09 µM) in series [1] (setting [4]); above 50 µg/mL in series [1] (setting [5]); 3.13 µg/mL (≈ 4.18 µM) in series [1] (setting [6]); 1.56 µg/mL (≈ 2.09 µM) in series [1] (setting [7]); 1.56 µg/mL (≈ 2.09 µM) in series [1] (setting [8]). Further, the MIC in series [1] (setting [9]) is 3.13 µg/mL (≈ 4.18 µM); in series [2], above 50 µg/mL.

As for `CO[C@H]1/C=C/O[C@@]2(C)Oc3c(C)c(O)c4c(O)c(c(/C=N/N5CCN(C)CC5)c(O)c4c3C2=O)NC(=O)/C(C)=C\C=C\[C@H](C)[C@H](O)[C@@H](C)[C@@H](O)[C@@H](C)[C@H](OC(C)=O)[C@@H]1C` [compound 2, rifampicin], the MIC in series [1] (setting [3]) was 12.5 µg/mL (≈ 15.2 µM); in series [1] (setting [4]), 3.13 µg/mL (≈ 3.8 µM); in series [1] (setting [5]), 3.13 µg/mL (≈ 3.8 µM); in series [1] (setting [6]), 3.13 µg/mL (≈ 3.8 µM); in series [1] (setting [7]) it was 1.56 µg/mL (≈ 1.9 µM); in series [1] (setting [8]), 3.13 µg/mL (≈ 3.8 µM). Moreover, the MIC was 3.13 µg/mL (≈ 3.8 µM) in series [1] (setting [9]) and 50 µg/mL (≈ 60.8 µM) in series [2].

Regarding `CC[C@H]1OC(=O)[C@H](C)[C@@H](O[C@H]2C[C@@](C)(OC)[C@@H](OC(C)=O)[C@H](C)O2)[C@H](C)[C@@H](O[C@@H]2O[C@H](C)C[C@H](N(C)C)[C@H]2O)[C@](C)(O)C[C@@H](C)C(=NOC)[C@H](C)[C@@H](O)[C@]1(C)O` [compound 3, 4″-O-acetylerythromycin A 9-(O-methyloxime)], the Minimum inhibitory concentration in series [1] (M. avium 20034) was above 50 µg/mL; in series [1] (M. avium 20045), 12.5 µg/mL (≈ 15.5 µM); in series [1] (M. avium 20096), above 50 µg/mL; in series [1] (M. intracellulare 20066), 12.5 µg/mL (≈ 15.5 µM); in series [1] (M. intracellulare 20067), 6.25 µg/mL (≈ 7.76 µM); in series [1] (M. intracellulare 20073), 12.5 µg/mL (≈ 15.5 µM). The Minimum inhibitory concentration in series [1] (M. intracellulare 20075) is 12.5 µg/mL (≈ 15.5 µM); in series [2], above 50 µg/mL.
